Source: US20250302799A1, “PHARMACEUTICAL COMPOSITION CONTAINING FRAXETIN FOR PREVENTION OR TREATMENT OF ENDOMETRIOSIS” (Research & Business Foundation Sungkyunkwan University, priority 2024, published 2025)

Columns and labels:
[1] = tested on: endometriotic lesions; test: Endometriosis animal model, lesion size and histology; type: in vivo, C57/BL6 mice; settings: fraxetin 30mg/kg orally for four weeks
Experimental: (§1) Seven-week-old female C57/BL6 mice were purchased from DBL (Eumseong, South Korea). After a 7-day acclimation period, they were subcutaneously injected with 2 mg/50 μL of progesterone two days before surgery. After anesthetizing the mice, the […] was excised and autografted onto the peritoneum to induce endometriosis. After culturing for two weeks, the mice were randomly assigned to groups and administered either a vehicle as the control, fraxetin at 30mg/kg, or dienogest at 1 mg/kg orally for four weeks.
For histological analysis, tissues were lesion prepared as paraffin blocks and sectioned onto slides. Hematoxylin-eosin (H&E) staining was performed using Mayer's hemalum solution and a Prussian Blue staining kit (Cat. Ab150674, Abcam) histological analysis and for immunohistochemistry. Immunohistochemistry was conducted using an avidin-biotin complex kit (Cat. PK-4001, Vector Laboratories).

[2] = tested on: endometriotic lesions; test: Gene expression in endometriotic lesion tissue of the animal model; type: in vivo, C57/BL6 mice
Experimental: as §1

[3] = tested on: normal endometrial stromal cell line T-HESC; test: BrdU cell proliferation assay, normal cells; type: cell-based, human; settings: 48 hours
Experimental: To examine the effects of fraxetin on cell proliferation, the inventors performed a BrdU cell proliferation assay.
First, 5×10^3 cells of VK2/E6E7, End1/E6E7, and T-HESC were each distributed in 100 μL of medium in 96-well plates.
Fraxetin was then administered in a dose-dependent manner (0μM, 5 μM, 10 μM, 20 uM, 50 μM, 100 uM) and cultured for 48 hours, followed by the BrdU assay using a BrdU kit (Cat No: 1167229001, Roche) according to the manufacturer's instructions.
After 48 hours of incubation, 10 μM BrdU (Bromodeoxyuridine) was added to each well and incubated at 37° C. in a 5% CO2 incubator for 2 hours. The cells were then fixed, reacted with anti-BrdU-POD solution at room temperature for 90 minutes, and washed three times. Finally, 100 μL of 3, 3′, 5, 5′-tetramethylbenzidine substrate was added, and absorbance was measured at wavelengths of 370 nm and 492 nm to analyze cell proliferation.

[4] = tested on: End1/E6E7 cells; test: Cell cycle analysis by flow cytometry (PI); type: cell-based, human; settings: End1/E6E7, 48 hours
Experimental: (§2) The inventors performed flow cytometry to examine the changes in the cell cycle of endometrial cells induced by fraxetin.
(§3) In brief, 5×10^3 cells of VK2/E6E7, End1/E6E7, and T-HESC were treated with fraxetin in a dose-dependent manner (0 μM, 5 μM, 10 μM, 20 μM, 50 μM, 100 μM) and incubated for 48 hours at 37° C. in a 5% CO2 incubator.
(§4) Afterward, cells were detached from the culture plates using trypsin, washed with 0.1% BSA/PBS, and fixed in 70% ethanol for 24 hours. The cells were then washed with 0.1% BSA/PBS, treated with RNase A (Sigma), and stained with PI. The stained solution transferred to FACS tubes, and fluorescence intensity and cell cycle were analyzed using a flow cytometer.

[5] = tested on: VK2/E6E7 cells; test: Cell cycle analysis by flow cytometry (PI); type: cell-based, human; settings: VK2/E6E7, 48 hours
Experimental: as §2, §3, §4

[6] = tested on: VK2/E6E7 cells; test: Wound healing / cell migration assay; type: cell-based, human; settings: vehicle 90%
Experimental: To measure the effects of fraxetin on endometrial cell migration, the inventors used a migration culture dish insert from Ibidi to analyze cell mobility.
In brief, endometrial cells (VK2/E6E7, End1/E6E7) were placed in compartmentalized wells within the culture dish and cultured until they filled the compartments. Afterward, the insert separating the compartments was removed, creating a 500 μm gap for cell migration. The cells were then cultured with medium containing fraxetin at 37° C. in a 5% CO2 incubator. Cell movement across the gap was observed using an optical microscope (DM3000, Leica) and photographed, and the migration distance was calculated and quantified.

[7] = tested on: End1/E6E7 cells; test: Mitochondrial membrane potential by JC-1 staining; type: cell-based, human; settings: End1/E6E7
Experimental: To examine changes in mitochondrial membrane potential (MMP) in endometrial cells induced by fraxetin, the inventors used a mitochondria staining kit (Cat no: CS0390, Sigma-Aldrich) to measure MMP.
In brief, End1/E6E7 and […] endometrial cell lines were cultured in 6-well plates, treated with fraxetin in a dose-dependent manner (0 μM, 5 μM, 10 μM, 20 μM, 50 μM, 100 μM), and incubated at 37° C. in a 5% CO2 incubator for 48 hours. Afterward, the cells were detached using trypsin, centrifuged to obtain cell pellets, resuspended in JC-1 staining solution, and incubated at 37° C. in a 5% CO2 incubator for 20 minutes. The stained cells were centrifuged again, washed with 1X JC-1 staining buffer, and analyzed using flow cytometry to assess changes in mitochondrial membrane potential.

[8] = tested on: End1/E6E7 cells; test: Mitochondrial respiration (XF Cell Mitostress kit); type: cell-based, human
Experimental: (§5) To confirm the effects of fraxetin on mitochondrial respiration in endometrial cells, the inventors used an XF Cell Mitostress kit.
(§6) In brief, endometrial cells were seeded in 24-well plates and cultured at 37° C. in a 5% CO2 incubator for 16 hours, followed by treatment with […]. Subsequently, various mitochondrial respiration parameters were measured by sequential treatment with oligomycin, FCCP, rotenone, and antimycin A in the two cell lines.

[9] = tested on: VK2/E6E7 cells; test: Mitochondrial respiration (XF Cell Mitostress kit); type: cell-based, human
Experimental: as §5, §6

[10] = tested on: endometrial cells; test: Western blot analysis (cell line not stated); type: cell-based, human
Experimental: To analyze protein expression related to the development of endometriosis following fraxetin treatment, the inventors conducted western blot analysis.
Briefly, endometrial cells were treated with fraxetin in a dose-dependent manner or in combination with signaling pathway inhibitors. Total proteins were extracted from the treated cells, and protein quantification was performed using the Bradford protein assay (Bio-Rad, Hercules, CA, USA). The extracted proteins were then denatured at 95° C. for 5 minutes and subjected to electrophoresis on a 10% SDS/PAGE gel before being transferred to a nitrocellulose membrane. The membrane was subsequently incubated with primary and secondary antibodies, and target protein expression was analyzed using chemiluminescence detection reagents (Supersignal West Pico, Pierce, Rockford, IL, USA) with the ChemiDoc EQ system and Quantity One software (Bio-Rad).

With `COc1cc2ccc(=O)oc2c(O)c1O` [fraxetin] the “immune cell infiltration (tissue after iron staining)” value [1] was “increase”, the “size of endometriotic lesions” value ([1]; vs vehicle control) was “significantly reduced” and the “expression of adhesion-related genes (Icam1, Vcam1, Itga1, Itga5)” value ([2]; endometriotic lesions) was “inhibited”. For the same compound, the “expression of apoptosis-related genes (Bak1, Bax, Bad, Casp1)” value ([2]; endometriotic lesions) was “increased”, the “expression of endoplasmic reticulum stress-related genes (Hspa5, Elf2s1, Ern1)” value ([2]; endometriotic lesions) was “increased” and the “expression of mitochondrial function-related genes (Atp5me, Atp5pb, Atp5po)” value ([2]; endometriotic lesions) was “decreased”. The “mRNA expression of inflammation-related genes (Il4, Cxcl15, Il8, Il21, Tnf, Il4ra, Cxcr1, Cxcr2, Il18r, Il21r, Tnfrsfa)” value ([2]; endometriotic lesions, compared to control group) was “significantly reduced”, the “expression of Icam1 and Vcam1 within the lesion tissue” value ([2]; fraxetin-treated group compared to control group) was “reduced” and the “cell proliferation in normal endometrial cells” value [3] was “no changes”. The “number of cells in the Sub-G1 phase” value [4] was “increase”, the “number of cells in the Sub-G1 phase” value [5] was “increase” and the wound closure [6] was 18%. The “relative membrane potential loss rate increase” value [7] was 1.8 fold, the ATP production [8] was “significantly decreased” and the basal respiration [8] was “significantly decreased”. The maximal respiration [8] was “significantly decreased”, the “reserve respiratory capacity compared to control” value [8] was “halved” and the ATP production [9] was “decreased”. For the same compound, the basal respiration [9] was “decreased”, the “level of GRP78 compared to control” value ([10]; 20 μM and 50 μM fraxetin) was 1.9 fold and the “JNK phosphorylation (remaining)” value ([10]; 50 μM fraxetin) was “below 50%”. The eIF2α phosphorylation ([10]; fraxetin-treated) was “tended to increase”.
